The supplement of paper PMC10307832

Assays:
Experiment in all cases: relative viability (nuclei count vs DMSO), 5 days (fraction); higher = more cells survive
Gemcitabine = compound: Nc1ccn([C@@H]2O[C@H](CO)[C@@H](O)C2(F)F)c(=O)n1 [Gemcitabine]
Method in brief: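 Five library-drug doses spaced by √10 were pinned onto vehicle-anchored 1536-well plates of lung cancer cell lines that had been kept overnight at 37 °C. Cells went 5 days without medium change, then were fixed, permeabilised and Hoechst-stained together, imaged at 4× and counted by MetaXpress. Viability is the ratio of treated-well to vehicle-well nuclei, taken as a median over plates. Plates required control CV below 25% and at least one doubling.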

Gemcitabine + Trametinib = compound: Nc1ccn([C@@H]2O[C@H](CO)[C@@H](O)C2(F)F)c(=O)n1 [Gemcitabine] + CC(=O)Nc1cccc(-n2c(=O)n(C3CC3)c(=O)c3c(Nc4ccc(I)cc4F)n(C)c(=O)c(C)c32)c1 [Trametinib] (partner 0.02 µM)
Method in brief: (§1)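 One day after seeding in 1536-well plates, lung cancer cell lines were dosed by pin tool. Dosing was either single-drug or a fixed anchor-drug dose plus five library-drug doses (not always all listed) in √10 steps. After 5 days, nuclei were stained in one fix-and-stain step and counted on 4× images, and relative viability is the nuclei count of treated wells over that of vehicle wells, given as the median of duplicate plates.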

[1] = compound: Nc1ccn([C@@H]2O[C@H](CO)[C@@H](O)C2(F)F)c(=O)n1 [Gemcitabine] + CC(=O)c1c(C)c2cnc(Nc3ccc(N4CCNCC4)cn3)nc2n(C2CCCC2)c1=O [Palbociclib] (partner 0.5 µM)
Method in brief: as §1

Gemcitabine + Luminespib = compound: Nc1ccn([C@@H]2O[C@H](CO)[C@@H](O)C2(F)F)c(=O)n1 [Gemcitabine] + CCNC(=O)c1noc(-c2cc(C(C)C)c(O)cc2O)c1-c1ccc(CN2CCOCC2)cc1 [Luminespib] (partner 0.01 µM)
Method in brief: as §1

Gemcitabine + OSI-027 = compound: Nc1ccn([C@@H]2O[C@H](CO)[C@@H](O)C2(F)F)c(=O)n1 [Gemcitabine] + COc1cccc2cc(-c3nc([C@H]4CC[C@H](C(=O)O)CC4)n4ncnc(N)c34)[nH]c12 [OSI-027] (partner 0.5 µM)
Method in brief: as §1

Gemcitabine + Tozasertib = compound: Nc1ccn([C@@H]2O[C@H](CO)[C@@H](O)C2(F)F)c(=O)n1 [Gemcitabine] + Cc1cc(Nc2cc(N3CCN(C)CC3)nc(Sc3ccc(NC(=O)C4CC4)cc3)n2)n[nH]1 [Tozasertib] (partner 0.1 µM)
Method in brief: as §1

Gemcitabine + Dasatinib = compound: Nc1ccn([C@@H]2O[C@H](CO)[C@@H](O)C2(F)F)c(=O)n1 [Gemcitabine] + Cc1nc(Nc2ncc(C(=O)Nc3c(C)cccc3Cl)s2)cc(N2CCN(CCO)CC2)n1 [Dasatinib] (partner 0.075 µM)
Method in brief: as §1

Gemcitabine + Phenformin = compound: Nc1ccn([C@@H]2O[C@H](CO)[C@@H](O)C2(F)F)c(=O)n1 [Gemcitabine] + N=C(N)NC(=N)NCCc1ccccc1 [Phenformin] (partner 250 µM)
Method in brief: as §1

Gemcitabine + AZD7762 = compound: Nc1ccn([C@@H]2O[C@H](CO)[C@@H](O)C2(F)F)c(=O)n1 [Gemcitabine] + NC(=O)Nc1cc(-c2cccc(F)c2)sc1C(=O)N[C@H]1CCCNC1 [AZD7762] (partner 0.2 µM)
Method in brief: as §1

Gemcitabine + Pemetrexed = compound: Nc1ccn([C@@H]2O[C@H](CO)[C@@H](O)C2(F)F)c(=O)n1 [Gemcitabine] + Nc1nc2[nH]cc(CCc3ccc(C(=O)N[C@@H](CCC(=O)O)C(=O)O)cc3)c2c(=O)[nH]1 [Pemetrexed] (partner 0.2 µM)
Method in brief: as §1

Gemcitabine + Decitabine = compound: Nc1ccn([C@@H]2O[C@H](CO)[C@@H](O)C2(F)F)c(=O)n1 [Gemcitabine] + Nc1ncn([C@H]2C[C@H](O)[C@@H](CO)O2)c(=O)n1 [Decitabine] (partner 2 µM)
Method in brief: as §1

Gemcitabine + Vorinostat = compound: Nc1ccn([C@@H]2O[C@H](CO)[C@@H](O)C2(F)F)c(=O)n1 [Gemcitabine] + O=C(CCCCCCC(=O)Nc1ccccc1)NO [Vorinostat] (partner 1 µM)
Method in brief: as §1

Gemcitabine + Olaparib = compound: Nc1ccn([C@@H]2O[C@H](CO)[C@@H](O)C2(F)F)c(=O)n1 [Gemcitabine] + O=C(c1cc(Cc2n[nH]c(=O)c3ccccc23)ccc1F)N1CCN(C(=O)C2CC2)CC1 [Olaparib] (partner 8 µM)
Method in brief: as §1

Gemcitabine + Foretinib = compound: Nc1ccn([C@@H]2O[C@H](CO)[C@@H](O)C2(F)F)c(=O)n1 [Gemcitabine] + COc1cc2c(Oc3ccc(NC(=O)C4(C(=O)Nc5ccc(F)cc5)CC4)cc3F)ccnc2cc1OCCCN1CCOCC1 [Foretinib] (partner 0.25 µM)
Method in brief: as §1

NCI-H522 showed a relative viability (Gemcitabine; 0.001 µM) of 1.12, a relative viability (Gemcitabine; 0.003162 µM) of 0.812 and a relative viability (Gemcitabine; 0.01 µM) of 0.418. The relative viability (Gemcitabine; 0.03162 µM) was 0.42, the relative viability (Gemcitabine; 0.1 µM) was 0.388 and the relative viability (Gemcitabine + Trametinib; first compound 0.001 µM) was 0.705. The relative viability (Gemcitabine + Trametinib; first compound 0.003162 µM) was 0.628, the relative viability (Gemcitabine + Trametinib; first compound 0.01 µM) was 0.36 and the relative viability (Gemcitabine + Trametinib; first compound 0.03162 µM) was 0.347. It also gave a relative viability (Gemcitabine + Trametinib; first compound 0.1 µM) of 0.319, a relative viability ([1]; first compound 0.001 µM) of 0.885 and a relative viability ([1]; first compound 0.003162 µM) of 0.729. For the same cell line, the relative viability ([1]; first compound 0.01 µM) was 0.528, the relative viability ([1]; first compound 0.03162 µM) was 0.394 and the relative viability ([1]; first compound 0.1 µM) was 0.364. For the same cell line, the relative viability (Gemcitabine + Luminespib; first compound 0.001 µM) was 1.14, the relative viability (Gemcitabine + Luminespib; first compound 0.003162 µM) was 1.08 and the relative viability (Gemcitabine + Luminespib; first compound 0.01 µM) was 0.727. It also gave a relative viability (Gemcitabine + Luminespib; first compound 0.03162 µM) of 0.392, a relative viability (Gemcitabine + Luminespib; first compound 0.1 µM) of 0.368 and a relative viability (Gemcitabine + OSI-027; first compound 0.001 µM) of 0.653. It also gave a relative viability (Gemcitabine + OSI-027; first compound 0.003162 µM) of 0.463, a relative viability (Gemcitabine + OSI-027; first compound 0.01 µM) of 0.384 and a relative viability (Gemcitabine + OSI-027; first compound 0.03162 µM) of 1.12. It also gave a relative viability (Gemcitabine + OSI-027; first compound 0.1 µM) of 0.393, a relative viability (Gemcitabine + Tozasertib; first compound 0.001 µM) of 0.555 and a relative viability (Gemcitabine + Tozasertib; first compound 0.003162 µM) of 0.396. The relative viability (Gemcitabine + Tozasertib; first compound 0.01 µM) was 0.379, the relative viability (Gemcitabine + Tozasertib; first compound 0.03162 µM) was 0.354 and the relative viability (Gemcitabine + Tozasertib; first compound 0.1 µM) was 0.312. The relative viability (Gemcitabine + Dasatinib; first compound 0.001 µM) was 0.987, the relative viability (Gemcitabine + Dasatinib; first compound 0.003162 µM) was 0.722 and the relative viability (Gemcitabine + Dasatinib; first compound 0.01 µM) was 0.384. The relative viability (Gemcitabine + Dasatinib; first compound 0.03162 µM) was 0.42, the relative viability (Gemcitabine + Dasatinib; first compound 0.1 µM) was 0.36 and the relative viability (Gemcitabine + Phenformin; first compound 0.001 µM) was 0.653. The relative viability (Gemcitabine + Phenformin; first compound 0.003162 µM) was 0.524, the relative viability (Gemcitabine + Phenformin; first compound 0.01 µM) was 0.47 and the relative viability (Gemcitabine + Phenformin; first compound 0.03162 µM) was 0.396. The relative viability (Gemcitabine + Phenformin; first compound 0.1 µM) was 0.384, the relative viability (Gemcitabine + AZD7762; first compound 0.001 µM) was 0.709 and the relative viability (Gemcitabine + AZD7762; first compound 0.003162 µM) was 0.384. It also gave a relative viability (Gemcitabine + AZD7762; first compound 0.01 µM) of 0.286, a relative viability (Gemcitabine + AZD7762; first compound 0.03162 µM) of 0.323 and a relative viability (Gemcitabine + AZD7762; first compound 0.1 µM) of 0.204. It also gave a relative viability (Gemcitabine + Pemetrexed; first compound 0.001 µM) of 0.954, a relative viability (Gemcitabine + Pemetrexed; first compound 0.003162 µM) of 0.953 and a relative viability (Gemcitabine + Pemetrexed; first compound 0.01 µM) of 0.419. The relative viability (Gemcitabine + Pemetrexed; first compound 0.03162 µM) was 0.367, the relative viability (Gemcitabine + Pemetrexed; first compound 0.1 µM) was 0.316 and the relative viability (Gemcitabine + Decitabine; first compound 0.001 µM) was 0.653. It also gave a relative viability (Gemcitabine + Decitabine; first compound 0.003162 µM) of 0.577, a relative viability (Gemcitabine + Decitabine; first compound 0.01 µM) of 0.502 and a relative viability (Gemcitabine + Decitabine; first compound 0.03162 µM) of 0.352. It also gave a relative viability (Gemcitabine + Decitabine; first compound 0.1 µM) of 0.342, a relative viability (Gemcitabine + Vorinostat; first compound 0.001 µM) of 0.829 and a relative viability (Gemcitabine + Vorinostat; first compound 0.003162 µM) of 0.63. For the same cell line, the relative viability (Gemcitabine + Vorinostat; first compound 0.01 µM) was 0.4, the relative viability (Gemcitabine + Vorinostat; first compound 0.03162 µM) was 0.331 and the relative viability (Gemcitabine + Vorinostat; first compound 0.1 µM) was 0.294. For the same cell line, the relative viability (Gemcitabine + Olaparib; first compound 0.001 µM) was 0.639, the relative viability (Gemcitabine + Olaparib; first compound 0.003162 µM) was 0.641 and the relative viability (Gemcitabine + Olaparib; first compound 0.01 µM) was 0.323. It also gave a relative viability (Gemcitabine + Olaparib; first compound 0.03162 µM) of 0.306 and a relative viability (Gemcitabine + Olaparib; first compound 0.1 µM) of 0.3.

In the case of NCI-H1623, the relative viability (Gemcitabine; 0.001 µM) is reported as 0.743, the relative viability (Gemcitabine; 0.003162 µM) is reported as 0.255 and the relative viability (Gemcitabine; 0.01 µM) is reported as 0.218. It also gave a relative viability (Gemcitabine; 0.03162 µM) of 0.188, a relative viability (Gemcitabine; 0.1 µM) of 0.178 and a relative viability (Gemcitabine + Luminespib; first compound 0.001 µM) of 0.43. The relative viability (Gemcitabine + Luminespib; first compound 0.003162 µM) was 0.308, the relative viability (Gemcitabine + Luminespib; first compound 0.01 µM) was 0.279 and the relative viability (Gemcitabine + Luminespib; first compound 0.03162 µM) was 0.236. The relative viability (Gemcitabine + Luminespib; first compound 0.1 µM) was 0.234, the relative viability (Gemcitabine + Foretinib; first compound 0.001 µM) was 0.741 and the relative viability (Gemcitabine + Foretinib; first compound 0.003162 µM) was 0.518. For the same cell line, the relative viability (Gemcitabine + Foretinib; first compound 0.01 µM) was 0.268, the relative viability (Gemcitabine + Foretinib; first compound 0.03162 µM) was 0.229 and the relative viability (Gemcitabine + Foretinib; first compound 0.1 µM) was 0.194. For the same cell line, the relative viability (Gemcitabine + OSI-027; first compound 0.001 µM) was 0.349, the relative viability (Gemcitabine + OSI-027; first compound 0.003162 µM) was 0.29 and the relative viability (Gemcitabine + OSI-027; first compound 0.01 µM) was 0.254. The relative viability (Gemcitabine + OSI-027; first compound 0.03162 µM) was 0.245, the relative viability (Gemcitabine + OSI-027; first compound 0.1 µM) was 0.237 and the relative viability (Gemcitabine + Tozasertib; first compound 0.001 µM) was 0.333. The relative viability (Gemcitabine + Tozasertib; first compound 0.003162 µM) was 0.222, the relative viability (Gemcitabine + Tozasertib; first compound 0.01 µM) was 0.173 and the relative viability (Gemcitabine + Tozasertib; first compound 0.03162 µM) was 0.16. It also gave a relative viability (Gemcitabine + Tozasertib; first compound 0.1 µM) of 0.17, a relative viability (Gemcitabine + Dasatinib; first compound 0.001 µM) of 0.485 and a relative viability (Gemcitabine + Dasatinib; first compound 0.003162 µM) of 0.431. It also gave a relative viability (Gemcitabine + Dasatinib; first compound 0.01 µM) of 0.175, a relative viability (Gemcitabine + Dasatinib; first compound 0.03162 µM) of 0.139 and a relative viability (Gemcitabine + Dasatinib; first compound 0.1 µM) of 0.143. For the same cell line, the relative viability (Gemcitabine + Phenformin; first compound 0.001 µM) was 0.526, the relative viability (Gemcitabine + Phenformin; first compound 0.003162 µM) was 0.49 and the relative viability (Gemcitabine + Phenformin; first compound 0.01 µM) was 0.201. The relative viability (Gemcitabine + Phenformin; first compound 0.03162 µM) was 0.369 and the relative viability (Gemcitabine + Phenformin; first compound 0.1 µM) was 0.164.
